Here are results for 1 substance from US8877938B2, “Compounds containing S-N-valeryl-N-{[2′-(1H-tetrazole-5-yl)-biphenyl-4-yl]-methyl}-valine and (2R,4S)-5-biphenyl-4-yl-4-(3-carboxy-propionylamino)-2-methyl-pentanoic acid ethyl ester moieties and cations” (Novartis Pharmaceuticals Corporation, priority 2005, dated 2014).

Assay [1] concerns the target neutral endopeptidase 24.11 (NEP) (Rattus norvegicus, UniProt P07861). To be noted: for NEP inhibition in vivo, as reflected by potentiation of plasma ANPir: oral administration, conscious Sprague-Dawley rats infused with exogenous ANP. The method, then: (§1) Representative studies are carried out with trisodium [3-((1S,3R)-1-biphenyl-4-ylmethyl-3-ethoxycarbonyl-1-butylcarbamoyl)propionate-(S)-3′-methyl-2′- pentanoyl{2″-(tetrazol-5-ylate)biphenyl-4′-ylmethyl}amino)butyrate] hemipentahydrate, e.g. applying the following methodology: • The antihypertensive and neutral endopeptidase 24.11 (NEP)-inhibitory activities of trisodium [3-((1S,3R)-1-biphenyl-4-ylmethyl-3-ethoxycarbonyl-1-butylcarbamoyl)propionate-(S)-3′-methyl-2′-(pentanoyl{2″-tetrazol-5-ylate)biphenyl-4′-ylmethyl}amino)butyrate] hemipentahydrate is assessed in conscious rats. The blood pressure-lowering effect is evaluated in double-transgenic rats (dTGRs) that overexpress both human renin and its substrate, human angiotensinogen (Bohlender, et al, High human renin hypertension in transgenic rats. Hypertension; 29(1 Pt 2):428-34, 1997). […] The NEP-inhibitory effect of trisodium [3-((1 S,3R)-1-biphenyl-4-ylmethyl-3-ethoxycarbonyl-1-butylcarbamoyl)propionate-(S)-3′-methyl-2′-(pentanoyl{2″-(tetrazol-5-ylate)biphenyl-4′-ylmethyl}amino)butyrate] hemipentahydrate is determined in conscious Sprague-Dawley rats infused with exogenous atrial natriuretic peptide (ANP). Potentiation of plasma ANP levels is used as an index of NEP inhibition in vivo. In both models, trisodium [3-((1S,3R)-1-biphenyl-4-ylmethyl-3-ethoxycarbonyl-1-butylcarbamoyl)propionate-(S)-3′-methyl-2′-(pentanoyl{2″-(tetrazol-5-ylate)biphenyl-4′-ylmethyl}amino)butyrate] hemipentahydrate is administered orally as a powder in gelatin mini capsules. […] Antihypertensive Effect In Vivo
Rat ANP(1-28) is infused intravenously at a rate of 450 ng/kg/min in conscious, chronically cannulated, male Sprague-Dawley rats. After one hour of infusion, rats are randomly assigned to one of six groups: untreated control, vehicle (empty capsule) control, or one of four doses of drug (2, 6, 20, or 60 mg/kg, p.o.). ANP infusion is continued for an additional eight hours. Blood samples are collected for measuring plasma ANPir by a commercial enzyme immunoassay kit at −60 min (i.e., before initiating ANP infusion), −30 min (after 30 min of ANP infusion), 0 min (“baseline”; after 60 min of ANP infusion but before dosing with drug or its vehicle), and at 0.25, 0.5,1, 2, 3, 4, 5, 6, 7, and 8 hr post-dosing.

Assay [2] relates to double-transgenic rats (dTGRs) that overexpress both human renin and its substrate, human angiotensinogen. The method, then:
as §1
The dTGRs are instrumented with radiotelemetry transmitters for continuous measurement of arterial blood pressure and heart rate. Animals are randomly assigned to vehicle (empty capsule) or treatment (at 2, 6, 20 or 60 mg/kg, p.o.) groups.

Setting [3] is: 2, 6, 20 or 60 mg/kg, p.o., rat ANP(1-28) infused i.v. at 450 ng/kg/min.

Like-named read-outs stand apart in the source and are kept apart here.

Sequence of neutral endopeptidase 24.11 (NEP) (P07861 whole entry, the tested form may be a part): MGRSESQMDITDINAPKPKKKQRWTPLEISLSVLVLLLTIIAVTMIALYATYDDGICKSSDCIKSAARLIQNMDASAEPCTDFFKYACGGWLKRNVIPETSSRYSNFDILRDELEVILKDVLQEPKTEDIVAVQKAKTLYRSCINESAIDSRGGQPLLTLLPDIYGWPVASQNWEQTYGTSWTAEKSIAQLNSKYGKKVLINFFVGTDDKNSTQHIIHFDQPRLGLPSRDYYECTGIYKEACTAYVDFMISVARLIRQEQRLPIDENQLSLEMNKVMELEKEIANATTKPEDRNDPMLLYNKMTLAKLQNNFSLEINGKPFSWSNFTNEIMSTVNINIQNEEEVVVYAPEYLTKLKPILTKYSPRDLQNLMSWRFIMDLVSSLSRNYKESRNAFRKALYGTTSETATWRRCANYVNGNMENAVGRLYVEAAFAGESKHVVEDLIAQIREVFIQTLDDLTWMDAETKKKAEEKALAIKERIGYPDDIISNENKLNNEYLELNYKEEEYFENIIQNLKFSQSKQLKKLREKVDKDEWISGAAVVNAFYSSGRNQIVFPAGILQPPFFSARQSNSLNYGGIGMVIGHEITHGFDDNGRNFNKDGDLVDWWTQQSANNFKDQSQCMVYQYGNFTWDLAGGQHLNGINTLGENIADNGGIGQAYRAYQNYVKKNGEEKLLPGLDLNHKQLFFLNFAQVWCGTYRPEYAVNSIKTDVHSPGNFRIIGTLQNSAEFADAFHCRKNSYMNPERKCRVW

Take “trisodium [3-((1S,3R)-1-biphenyl-4-ylmethyl-3-ethoxycarbonyl-1-butylcarbamoyl)propionate-(S)-3′-methyl-2′-(pentanoyl{2″-(tetrazol-5-ylate)biphenyl-4′-ylmethyl}amino)butyrate] hemipentahydrate”: in assay [1] (setting [3]), the “plasma ANPir” value was “dose-dependently augments ANPir” and the “time to augmentation of plasma ANPir after dosing” value is ≤ 15 min. Further, the “NEP inhibition in vivo, as reflected by potentiation of plasma ANPir” value in assay [1] is “rapidly and dose-dependently inhibits NEP with a long duration of action”. Also, the “NEP inhibition in vivo, as reflected by potentiation of plasma ANPir” value in assay [1] (listed as LCZ696) is “rapidly and dose-dependently inhibited NEP with a long duration of action”. Also, the “mean arterial pressure (MAP)” value in assay [2] (2, 6, 20 or 60 mg/kg, p.o., baseline 24-hr MAP approximately 170-180 mmHg) is reported as “dose-dependently reduces MAP”. Besides, the antihypertensive effect entry in assay [2] (oral administration, conscious dTGRs, a rat model of fulminant hypertension) was “dose-dependent and long-lasting antihypertensive effect”. Also, in assay [2] (three highest doses (of 2, 6, 20, 60 mg/kg, p.o.)), the “MAP, difference from vehicle controls” value is reported as “significantly different from the vehicle controls”.
